From ChEMBL document CHEMBL1137399, “Synthesis, structure-activity relationships, and antitumor studies of 2-benzoxazolyl hydrazones derived from alpha-(N)-acyl heteroaromatics” (J Med Chem, 2006) come the findings set out here.

The structures appear in SMILES notation. Active and inactive are the calls of the source. No cut-off for these calls is given here.

The test system of one assay is HT-29. Description: Antiproliferative activity against HT29 cells by SRB assay. In kind it is functional, cell-based. Conditions: Homo sapiens.
Another assay concerns CCRF-CEM. Description: Antiproliferative activity against CCRF-CEM cells by MTT assay. In kind it is functional, cell-based. The conditions noted are these: Homo sapiens.
The subject of assay [1] is HeLa. Description: Antiproliferative activity against HeLa cells by SRB assay. The conditions noted are these: Homo sapiens. In kind it is functional, cell-based.
The test system of another assay is Burkitts lymphoma cell. Description: Antiproliferative activity against Burkitt cells by MTT assay. In kind it is functional, cell-based. The conditions noted are these: Homo sapiens.
The subject of assay [2] is HeLa. Put plainly: Antiproliferative activity against HeLa-mdr1 cells overexpressing P-glycoprotein in presence of verapamil by SRB assay. In kind it is functional, cell-based. Conditions: Homo sapiens.
The next assay relates to OVCAR-3. Put plainly: Net cell kill against human OVCAR-3 cells by hollow fiber assay. In kind it is functional, cell-based.
Another assay deals with SF-295. Put plainly: Net cell kill against human SF295 cells by hollow fiber assay. Type of assay: functional, cell-based.
Another assay concerns HL-60. Put plainly: Ratio for antiproliferative activity against HL60/AR cells to wild type HL60 by MTT assay. Type of assay: functional, Homo sapiens.

Regarding `C/C(=N\Nc1nc2ccccc2o1)c1cccnn1`, the IC50 with HT-29 was 2640 nM; with CCRF-CEM it was 720 nM; with HeLa [1] it was 1180 nM; in the assay on Burkitts lymphoma cell it was 1300 nM.

With `C/C(=N\Nc1nc2ccccc2o1)c1cccnc1`, the IC50 with HT-29, with CCRF-CEM, in the assay with HeLa [1] and in the assay on Burkitts lymphoma cell was greater than 100000 nM in each case.

Take `C/C(=N\Nc1nc2ccccc2o1)c1ccc2ccccc2n1`: the IC50 in the assay with HT-29 was found to be 7760 nM; with CCRF-CEM, 7040 nM; in the assay with HeLa [1], 4530 nM; in the assay on Burkitts lymphoma cell, 5490 nM.

As to `C/C(=N\Nc1nc2ccccc2o1)c1nccc2ccccc12`, the half-maximal inhibitory concentration (IC50) with HT-29 is 1930 nM; with CCRF-CEM, 350 nM; in the assay on HeLa [1], 340 nM; in the assay on Burkitts lymphoma cell, 200 nM.

For `CC/C(=N\Nc1nc2ccccc2o1)c1ccccn1`, the IC50 worked out at 409 nM in the assay on HT-29, 4 nM with CCRF-CEM, 52 nM in the assay with HeLa [1] and 2 nM with Burkitts lymphoma cell.

In the case of `C/C(=N\Nc1nc2ccccc2o1)c1cnc(C)cn1`, the IC50 came to 290 nM with HT-29, 620 nM in the assay with CCRF-CEM, 370 nM in the assay on HeLa [1] and 150 nM with Burkitts lymphoma cell.

For the molecule `C/C(=N\Nc1nc2ccccc2o1)c1nccnc1C`, the half-maximal inhibitory concentration (IC50) in the assay on HT-29 amounted to 2140 nM; with CCRF-CEM, 1300 nM; with HeLa [1], 1860 nM; with Burkitts lymphoma cell it was 900 nM.

Regarding `C/C(=N\Nc1nc2ccccc2o1)c1cccc[n+]1[O-]`, the IC50 in the assay on HT-29 came out at 4780 nM; with HeLa [1], 288 nM; in the assay on Burkitts lymphoma cell, 27 nM.

With `CC(C)/C(=N\Nc1nc2ccccc2o1)c1ccccn1`, the 50% inhibitory concentration (IC50) in the assay on HT-29 stood at 645 nM; in the assay with CCRF-CEM it was 21 nM; in the assay with HeLa [1], 185 nM; with Burkitts lymphoma cell it was 14 nM.

Regarding `C/C(=N\N(C)c1nc2ccccc2o1)c1ccccn1`, the IC50 with HT-29, in the assay with CCRF-CEM, in the assay on HeLa [1] and with Burkitts lymphoma cell was greater than 50000 nM throughout.

As to `c1ccc(/C(=N\Nc2nc3ccccc3o2)c2ccccn2)cc1`, the IC50 is 44 nM with HT-29, 78 nM in the assay with CCRF-CEM, 43 nM in the assay with HeLa [1] and 120 nM in the assay with Burkitts lymphoma cell.

As to `c1ccc(C(=NNc2nc3ccccc3o2)c2ccccn2)nc1`, the concentration for half-maximal inhibition (IC50) in the assay with HT-29 was found to be 6980 nM; in the assay on CCRF-CEM, 44 nM; in the assay with HeLa [1] it was 156 nM; in the assay with Burkitts lymphoma cell it was 12 nM.

`C/C(=N\Nc1nc2ccccc2o1)c1ncccn1`: the IC50 was determined as 270 nM in the assay with HT-29, 130 nM in the assay with CCRF-CEM, 180 nM with HeLa [1] and 30 nM in the assay on Burkitts lymphoma cell.

Take `c1ccc(C/C(=N\Nc2nc3ccccc3o2)c2ccccn2)cc1`: the concentration for half-maximal inhibition (IC50) was 219 nM with HT-29, greater than 10000 nM with CCRF-CEM, 42 nM with HeLa [1] and greater than 10000 nM in the assay with Burkitts lymphoma cell.

For `CCC/C(=N\Nc1nc2ccccc2o1)c1ccccn1`, the IC50 was 851 nM in the assay with HT-29, 6 nM with CCRF-CEM, 153 nM with HeLa [1] and 6 nM with Burkitts lymphoma cell.

For `C/C(=N\Nc1nc2ccccc2o1)c1ccccn1`, the IC50 with HT-29 came out at 1430 nM; with CCRF-CEM, 24 nM; in the assay with HeLa [1], 770 nM; in the assay on Burkitts lymphoma cell, 5 nM.

Regarding `CC[C@]1(O)C[C@@H]2CN(CCc3c([nH]c4ccccc34)[C@@](C(=O)OC)(c3cc4c(cc3OC)N(C)[C@H]3[C@@](O)(C(=O)OC)[C@H](OC(C)=O)[C@]5(CC)C=CCN6CC[C@]43[C@@H]65)C2)C1`, the result in the assay with HeLa [2] was Active.

As for `C/C(=N\Nc1nc2ccccc2o1)c1ccncn1`, the 50% inhibitory concentration (IC50) with HT-29 was 190 nM; in the assay with CCRF-CEM, 360 nM; in the assay with HeLa [1] it was 500 nM; with Burkitts lymphoma cell, 144 nM.

Regarding `c1ccc(/C(=N/Nc2nc3ccccc3o2)C2CC2)nc1`, the half-maximal inhibitory concentration (IC50) amounted to 20600 nM with HT-29, 4490 nM in the assay with HeLa [1] and 185 nM in the assay on Burkitts lymphoma cell.

On to `C/C(=N\Nc1nc2ccccc2o1)c1cc2ccccc2cn1`, for which the result in the assay with OVCAR-3 and in the assay on SF-295 was Active. The half-maximal inhibitory concentration (IC50) in the assay on HT-29 turned out to be 40 nM; with CCRF-CEM, 140 nM; in the assay on HeLa [1] it was 100 nM; with Burkitts lymphoma cell it was 30 nM. Also, the result in the assay on HeLa [2] was inactive. Besides, in the assay on HL-60, the “Ratio IC50” value turned out to be 1.7.

Consider `CC(C)(C)/C(=N\Nc1nc2ccccc2o1)c1ccccn1`, for which the concentration for half-maximal inhibition (IC50) in the assay on HT-29, with CCRF-CEM, in the assay on HeLa [1] and in the assay on Burkitts lymphoma cell was greater than 10000 nM each time.

Take `C/C(=N\Nc1nc2ccccc2o1)c1ccc(C)nn1`: the IC50 with HT-29 stood at 6770 nM; in the assay with CCRF-CEM it was 2550 nM; with HeLa [1] it was 3390 nM; in the assay with Burkitts lymphoma cell, 6270 nM.

On to `C/C(=N\Nc1nc2ccccc2o1)c1cc(C)ncn1`, for which the IC50 was found to be 110 nM with HT-29, 230 nM with CCRF-CEM, 210 nM in the assay on HeLa [1] and 42 nM in the assay on Burkitts lymphoma cell.
